Laboratory results published in US20200024278A1, “COMPOSITION COMPRISING ANTIBIOTIC COMPOUND AND AN HETEROCYCLIC COMPOUND AND THEIR USE IN PREVENTING OR TREATING BACTERIAL INFECTIONS” (MUTABILIS, priority 2016, published 2020).

How the values were obtained:
Assay in all cases: MIC, broth microdilution (CLSI), substance alone or ATB combined with compound at 4 or 8 μg/mL
ECO 190317 = format: cell-based, E. coli; conditions: ECO 190317
Description: (§1) Compounds of the present invention were assessed against genotyped bacterial strains alone or in combination with an antibacterial. In the assays, MICs of said compounds or combination of antibiotics with fixed concentrations of said compounds (4 or 8 μg/mL) were determined by the broth microdilution method according to the Clinical Laboratory Standards Institute (CLSI-M7-A7). Briefly, compounds alone according to the invention were prepared in DMSO and spotted (2 μL each) on sterile polystyrene plates (Corning, 3788). Combinations of compounds and antibiotics dilutions were prepared in DMSO and spotted (1 μL each) on sterile polystyrene plates (Corning, 3788). Log phase bacterial suspensions were adjusted to a final density of 5·10^5 CFU/mL in cation-adjusted Mueller-Hinton broth (ca-MHB; Becton-Dickinson and Company) and added to each well (98 μL). Assays including Fosfomycin were supplemented with 25 μg/ml of Glucose-6-phosphate. Microplates were incubated for 16-20 h at 35° C. in ambient air. The MIC of the compounds was defined as the lowest concentration of said compounds that prevented bacterial growth as read by visual inspection. The MIC of ATB at each compound concentration was defined as the lowest concentration of ATB that prevented bacterial growth as read by visual inspection.

ECO UFR39 = format: cell-based, E. coli; conditions: ECO UFR39; with Example 13 at 8 μg/ml
Description: as §1

ECL P99 = format: cell-based, E. cloacae; conditions: ECL P99
Description: as §1

PAE 105250 = format: cell-based, P. aeruginosa; conditions: PAE 105250
Description: as §1

PAE UFR48 = format: cell-based, P. aeruginosa; conditions: PAE UFR48
Description: as §1

PAE UFR90 = format: cell-based, P. aeruginosa; conditions: PAE UFR90
Description: as §1

SAU 29213 = format: cell-based, S. aureus; conditions: SAU 29213
Description: as §1

SPN 49619 = format: cell-based, S. pneumoniae; conditions: SPN 49619
Description: as §1

CO/N=C(\C(=O)N[C@@H]1C(=O)N2C(C(=O)O)=C(COC(C)=O)CS[C@H]12)c1csc(N)n1 [CTX]
>32 µg/mL: MIC ATB combined with Example 12 @8 μg/ml (PAE 105250; with Example 12 at 8 μg/ml) | MIC ATB combined with Example 14 @8 μg/ml (PAE 105250; with Example 14 at 8 μg/ml) | MIC ATB combined with Example 16 @4 μg/ml (PAE 105250; with Example 16 at 4 μg/ml) | MIC ATB combined with Example 7 @8 μgml (PAE UFR48; with Example 7 at 8 μg/ml) | MIC ATB combined with Example 11 @8 μg/ml (PAE UFR48; with Example 11 at 8 μg/ml) | MIC ATB combined with Example 12 @8 μg/ml (PAE UFR48; with Example 12 at 8 μg/ml) | MIC ATB combined with Example 14 @8 μg/ml (PAE UFR48; with Example 14 at 8 μg/ml) | MIC ATB combined with Example 15 @4 μgml (PAE UFR48; with Example 15 at 4 μg/ml) | MIC ATB combined with Example 16 @4 μg/ml (PAE UFR48; with Example 16 at 4 μg/ml) | MIC ATB combined with Example 7 @8 μgml (PAE UFR90; with Example 7 at 8 μg/ml) | MIC ATB combined with Example 11 @8 μg/ml (PAE UFR90; with Example 11 at 8 μg/ml) | MIC ATB combined with Example 14 @8 μg/ml (PAE UFR90; with Example 14 at 8 μg/ml) | MIC ATB combined with Example 15 @4 μgml (PAE UFR90; with Example 15 at 4 μg/ml) | MIC ATB combined with Example 16 @4 μg/ml (PAE UFR90; with Example 16 at 4 μg/ml)
1 µg/mL: MIC ATB combined with Example 13 @8 μg/ml (ECL P99; with Example 13 at 8 μg/ml) | MIC ATB combined with Example 7 @8 μgml (SAU 29213; with Example 7 at 8 μg/ml) | MIC ATB combined with Example 13 @8 μg/ml (SAU 29213; with Example 13 at 8 μg/ml)
<=0.031 μg/mL: MIC ATB combined with Example 15 @4 μgml (ECL P99; with Example 15 at 4 μg/ml) | MIC ATB combined with Example 11 @8 μg/ml (SAU 29213; with Example 11 at 8 μg/ml) | MIC ATB combined with Example 1 @8 μg/ml (SPN 49619; with Example 1 @8 μg/ml) | MIC ATB combined with Example 1 @8 μg/ml (SPN 49619; with Example 1 at 8 μg/ml) | MIC ATB combined with Example 7 @8 μgml (SPN 49619; with Example 7 at 8 μg/ml) | MIC ATB combined with Example 9 @4 μg/ml (SPN 49619; with Example 9 @4 μg/ml) | MIC ATB combined with Example 9 @4 μg/ml (SPN 49619; with Example 9 at 4 μg/ml) | MIC ATB combined with Example 11 @8 μg/ml (SPN 49619; with Example 11 at 8 μg/ml) | MIC ATB combined with Example 12 @8 μg/ml (SPN 49619; with Example 12 at 8 μg/ml) | MIC ATB combined with Example 13 @8 μg/ml (SPN 49619; with Example 13 at 8 μg/ml) | MIC ATB combined with Example 14 @8 μg/ml (SPN 49619; with Example 14 at 8 μg/ml) | MIC ATB combined with Example 15 @4 μgml (SPN 49619; with Example 15 at 4 μg/ml) | MIC ATB combined with Example 16 @4 μg/ml (SPN 49619; with Example 16 at 4 μg/ml)
32 µg/mL: MIC ATB combined with Example 7 @8 μgml (PAE 105250; with Example 7 at 8 μg/ml) | MIC ATB combined with Example 11 @8 μg/ml (PAE 105250; with Example 11 at 8 μg/ml) | MIC ATB combined with Example 15 @4 μgml (PAE 105250; with Example 15 at 4 μg/ml)
0.5 µg/mL: MIC ATB combined with Example 15 @4 μgml (SAU 29213; with Example 15 at 4 μg/ml)
<0.031 µg/mL: MIC ATB combined with Example 1 @8 μg/ml (ECO 190317; with Example 1 @8 μg/ml) | MIC ATB combined with Example 1 @8 μg/ml (ECO 190317; with Example 1 at 8 μg/ml) | MIC ATB combined with Example 13 @8 μg/ml (ECO 190317; with Example 13 at 8 μg/ml) | MIC ATB combined with Example 13 @8 μg/ml (ECO UFR39) | MIC ATB combined with Example 1 @8 μg/ml (ECL P99; with Example 1 @8 μg/ml) | MIC ATB combined with Example 1 @8 μg/ml (ECL P99; with Example 1 at 8 μg/ml) | MIC ATB combined with Example 1 @8 μg/ml (PAE 105250; with Example 1 @8 μg/ml) | MIC ATB combined with Example 1 @8 μg/ml (PAE 105250; with Example 1 at 8 μg/ml) | MIC ATB combined with Example 1 @8 μg/ml (PAE UFR48; with Example 1 @8 μg/ml) | MIC ATB combined with Example 1 @8 μg/ml (PAE UFR48; with Example 1 at 8 μg/ml) | MIC ATB combined with Example 1 @8 μg/ml (PAE UFR90; with Example 1 @8 μg/ml) | MIC ATB combined with Example 1 @8 μg/ml (PAE UFR90; with Example 1 at 8 μg/ml)
0.063 µg/mL: MIC ATB combined with Example 7 @8 μgml (ECL P99; with Example 7 at 8 μg/ml) | MIC ATB alone (SPN 49619; antibiotic alone)
2 µg/mL: MIC ATB alone (SAU 29213; antibiotic alone) | MIC ATB combined with Example 1 @8 μg/ml (SAU 29213; with Example 1 @8 μg/ml) | MIC ATB combined with Example 1 @8 μg/ml (SAU 29213; with Example 1 at 8 μg/ml)
